Results reported in patent US10624946B2, “Treating liver diseases” (Mayo Foundation for Medical Education and Research, priority 2005, dated 2020).

System: PCK rats
Experiment: Hepatic and renal laboratory parameters in PCK rats treated with octreotide
Details: Octreotide (10 μg)
Procedure: Three week old PCK rats (n=60) were divided into five groups (three animals of each gender per treatment group). Each group was divided into two subgroups. […] Each animal was injected intraperitoneally every 12 hours. […] The control groups received an equal volume of saline.
At 4, 8, 12 and 16 weeks of age, animals were anesthetized with pentobarbital (50 mg/kg body weight, ip). Blood was collected by cardiac puncture for determination of hepatic and renal laboratory parameters and cAMP levels. Liver and kidney tissue sections (5 μm) were stained with hematoxylin-eosin and picrosirius red for analysis using light microscopy. Renal and hepatic fibrosis and cystic scores were measured using Meta-Morph software (Universal Imaging, West Chester, Pa., USA), a light microscope with a color digital camera (Nikon DXM 1200), and a Pentium IBM-compatible computer (Del OptiPlex). To measure the volume of a cyst or fibrosis, a colored threshold was applied at a level that allowed cystic tissue to be distinguished from non-cystic tissue and picrosirius red-positive stained fibrotic tissue to be distinguished from the background. The cystic and fibrotic scores were expressed as a percentage of total tissue.

[1] = Female PCK rats, Group I, 4 weeks of treatment
[2] = Female PCK rats, Group II, 8 weeks of treatment
[3] = Female PCK rats, Group III, 12 weeks of treatment
[4] = Female PCK rats, Group IV, 16 weeks of treatment
[5] = Female PCK rats, HD, 4 weeks of treatment
[6] = Male PCK rats, Group I, 4 weeks of treatment
[7] = Male PCK rats, Group II, 8 weeks of treatment
[8] = Male PCK rats, Group III, 12 weeks of treatment
[9] = Male PCK rats, Group IV, 16 weeks of treatment

C[C@@H](O)[C@@H]1NC(=O)[C@H](CCCCN)NC(=O)[C@@H](Cc2c[nH]c3ccccc23)NC(=O)[C@H](Cc2ccccc2)NC(=O)[C@@H](NC(=O)[C@H](N)Cc2ccccc2)CSSC[C@@H](C(=O)N[C@H](CO)[C@@H](C)O)NC1=O [Octreotide, octreotide]
Alkaline Phosphatase [1]: 238.5 ± 23.5 U/L | Aspartate Aminotransferase [1]: 135.0 ± 11.4 U/L | Bilirubin Direct [1]: 0.1 mg/dL | Bilirubin Total [1]: 0.2 mg/dL | Blood Urea Nitrogen [1]: 16.7 ± 0.3 mg/dL | Creatinine [1]: 0.55 ± 0.06 mg/dL | Protein total [1]: 5.70 ± 0.20 g/dL | Aspartate Aminotransferase [2]: 211.2 ± 48.4 U/L | Bilirubin Direct [2]: 0.1 mg/dL | Bilirubin Total [2]: 0.23 ± 0.03 mg/dL | Blood Urea Nitrogen [2]: 15.7 ± 1.2 mg/dL | Creatinine [2]: 0.57 ± 0.03 mg/dL | Protein total [2]: 5.53 ± 0.18 g/dL | Alkaline Phosphatase [3]: 237.0 ± 22.1 U/L | Aspartate Aminotransferase [3]: 207.5 ± 31.5 U/L | Bilirubin Direct [3]: 0.1 mg/dL | Bilirubin Total [3]: 0.2 mg/dL | Blood Urea Nitrogen [3]: 20.5 ± 0.5 mg/dL | Creatinine [3]: 0.6 mg/dL | Protein total [3]: 5.2 ± 0.17 g/dL | Alkaline Phosphatase [4]: 156.7 ± 4.3 U/L | Aspartate Aminotransferase [4]: 165.0 ± 36.46 U/L | Bilirubin Direct [4]: 0.1 mg/dL | Bilirubin Total [4]: 0.2 mg/dL | Blood Urea Nitrogen [4]: 20.5 ± 0.9 mg/dL | Creatinine [4]: 0.63 ± 0.03 mg/dL | Protein total [4]: 5.6 ± 0.08 g/dL | Alkaline Phosphatase [5]: 292.5 ± 14.3 U/L | Aspartate Aminotransferase [5]: 197.4 ± 25.7 U/L | Bilirubin Direct [5]: 0.1 mg/dL | Bilirubin Total [5]: 0.2 mg/dL | Blood Urea Nitrogen [5]: 17.0 ± 2.6 mg/dL | Creatinine [5]: 0.6 mg/dL | Protein total [5]: 5.3 ± 0.12 g/dL | Alkaline Phosphatase [6]: 264.5 ± 41.5 U/L | Aspartate Aminotransferase [6]: 212.7 ± 41.1 U/L | Bilirubin Direct [6]: 0.1 mg/dL | Bilirubin Total [6]: 0.17 ± 0.0 mg/dL | Blood Urea Nitrogen [6]: 16.0 ± 0.6 mg/dL | Creatinine [6]: 0.49 ± 0.04 mg/dL | Protein total [6]: 5.74 ± 0.19 g/dL | Alkaline Phosphatase [7]: 305.3 ± 20.4 U/L | Aspartate Aminotransferase [7]: 188.1 ± 20.6 U/L | Bilirubin Direct [7]: 0.1 mg/dL | Bilirubin Total [7]: 0.2 mg/dL | Blood Urea Nitrogen [7]: 18.3 ± 1.6 mg/dL | Creatinine [7]: 0.6 mg/dL | Protein total [7]: 5.22 ± 1.4 g/dL | Alkaline Phosphatase [8]: 210.5 ± 24.5 U/L | Aspartate Aminotransferase [8]: 181.7 ± 39.2 U/L | Bilirubin Direct [8]: 0.1 mg/dL | Bilirubin Total [8]: 0.3 mg/dL | Blood Urea Nitrogen [8]: 21.5 ± 1.5 mg/dL | Creatinine [8]: 0.6 mg/dL | Protein total [8]: 5.2 ± 0.03 g/dL | Alkaline Phosphatase [9]: 189.5 ± 18.5 U/L | Aspartate Aminotransferase [9]: 145.1 ± 49.51 U/L | Bilirubin Direct [9]: 0.1 mg/dL | Bilirubin Total [9]: 0.2 mg/dL | Blood Urea Nitrogen [9]: 20.3 ± 0.8 mg/dL | Creatinine [9]: 0.65 ± 0.05 mg/dL
